According to patent publication US11331290B2, “Niclosamide for the treatment of cancer metastasis” (Max-Delbrück-Centrum für Molekulare Medizin in der …, priority 2011, dated 2022):

Test system: S100A4 protein
Assay: S100A4 protein expression by immunoblot
Type: cell-based, human
Conditions: for S100A4 protein expression: 1 μM
Protocol: For total protein extraction cells were lysed with RIPA buffer (50 mM Tris-HCl, 150 mM NaCl, 1% Nonidet P-40, supplemented with complete protease inhibitor tablets; Roche) for 30 minutes on ice. For isolation of the nuclear protein fraction, the NE-PER Nuclear and Cytoplasmic Extraction Kit (Pierce) was used according to the manufacturer's instructions. Protein concentration was quantified with Bicinchoninic Acid (BCA) Protein Assay Reagent (Pierce) according to manufacturer's instructions and lysates of equal protein concentration were separated with SDS-PAGE and transferred to Hybond C Extra nitrocellulose membrane (Amersham Biosciences). Membranes were incubated in blocking solution containing 5% nonfat dry milk and 1% bovine serum albumin (BSA) for 1 hour at room temperature. Membranes were incubated overnight at 4° C. with rabbit anti-human-S100A4 antibody (dilution, 1:1500), mouse anti-human-CTNNB1 antibody (dilution, 1:1000), mouse anti-human TUBB1 antibody (dilution, 1:1000), goat anti-human GAPDH antibody (dilution, 1:500) or mouse anti-human PCNA antibody (dilution, 1:1000) followed by incubation for 1 hour at room temperature with HRP-conjugated anti-goat (dilution, 1:10000), anti-rabbit (dilution, 1:10000), anti-mouse IgG (dilution, 1:10000) or anti-mouse IgM (dilution, 1:10000) antibody. Antibody-protein-complexes were visualized with electrochemical-luminescence (ECL) reagent (100 mM Tris-HCl, 0.025% w/v luminol, 0.011% w/v para-hydroxycoumaric acid, 10% v/v dimethylsulfoxide, 0.004% v/v H2O2, pH 8.6) and subsequent exposure to CL-XPosure™ Films (Pierce) for 1 second to 20 minutes. Immunoblotting for GAPDH and PCNA served as protein loading control. Immunoblotting for β-tubulin was used to control that nuclear extracts were free from cytoplasmatic protein. All experiments were performed at least three independent times.
(A) Determination of the cytotoxicity of niclosamide on HCT116 cells. Cells were treated with increasing concentrations of niclosamide for 24 hours and cell viability was measured. (B) Effect of increasing concentrations of niclosamide on S100A4 expression. HCT116 cells were treated with increasing concentrations of niclosamide for 24 hours. S100A4 expression was determined by quantitative reverse-transcription-polymerase chain reaction (qRT-PCR) and immunoblot. (C) Time-dependency of niclosamide effect on S100A4 expression. HCT116 cells were treated with a single dose of 1 μM niclosamide for 24 hours and S100A4 expression was analyzed by qRT-PCR and immunoblot at indicated time points. Black bar indicates the chosen treatment conditions for further experiments. (D) Effect of daily doses of niclosamide on S100A4 expression. HCT116 cells were treated daily with 1 μM niclosamide and S100A4 expression was analyzed by qRT-PCR and immunoblot. Data is given as mean±SD (n>2). Differences in treated groups were compared with the control group by two-sided one-way analysis of variances and Bonferroni post hoc multiple comparison test.
(E) Effect of niclosamide in HCT116-vector and HCT116-S100A4 cells. HCT116-vector and HCT116-S100A4 cells were treated with 1 μM niclosamide for 24 hours and S100A4 expression was analyzed by qRT-PCR and immunoblot. Data is given as mean±SD (n>2). Comparison of niclosamide vs. solvent-treated cells was analyzed with Student's t test.
(A) S100A4 expression under niclosamide treatment. Cells were treated with 1 μM niclosamide for 24 hours. S100A4 expression was analyzed with qRT-PCR and immunoblot. (B) Cell migration under niclosamide treatment. Migration rates of cells treated with 1 μM niclosamide for 24 hours were determined in a Boyden chamber assay values were normalized to solvent-treated SW620 cells. (C) Cell invasion under niclosamide treatment. Cells were seeded onto Matrigel covered transwells and treated with 1 μM niclosamide for 24 hours. Invaded cells in the lower chamber were counted and normalized to solvent-treated SW620 cells. […]

With `O=C(Nc1ccc([N+](=O)[O-])cc1Cl)c1cc(Cl)ccc1O` [niclosamide, 2′,5-dichloro-4′-nitrosalicylanilide] the S100A4 protein expression (DLD-1 cells, 24 h (solvent and niclosamide-treated)) was “no S100A4 protein was detected”, the S100A4 protein level (HCT116, 0.1 μM to 2.5 μM, 24 h) was “reduced in a concentration-dependent manner” and the “S100A4 protein level, % of solvent-treated control cells” value (HCT116, 1 μM daily) was “approximately 50%”. The S100A4 protein (HCT116, three days following discontinuation of niclosamide treatment) was “clearly reduced”, the S100A4 protein level (HCT116-S100A4, 1 μM, 24 h) was “no reduction” and the activity at 1 µM (Homo sapiens, HCT-116, HCT116, 1 μM, single dose, 24 hours, read-out: S100A4 protein level, % of control) was < 50%. The S100A4 protein expression (SW620, LS174T and SW480 cells, 24 h) was “reduced”.
